# System: 695427-040-R-J1-PDC complex spheroid viability
# Experiment: Anticancer human tumor 695427-040-R-J1-PDC patient-derived colon adenocarcinoma cell line growth inhibition [POLQ]
# Settings: for IC50: curve of first compound; for viability, T/C: stronger effect = lower value
# Outline: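 Patient-derived tumour cells were co-cultured with HUVEC and mesenchymal stem cells as multicellular spheroids at 37 °C. They were treated with POLQ inhibitors (novobiocin, ART-558, RP6685) alone or combined with other agents. Top concentrations were at or near clinical Cmax (otherwise 10 microM; SN-38 at 1 microM), decreasing in half-log steps.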
# [1] = second compound 0.0316 µM, first compound 0.00316 µM
# [2] = second compound 0.0316 µM, first compound 0.01 µM
# [3] = second compound 0.0316 µM, first compound 0.0316 µM
# [4] = second compound 0.0316 µM, first compound 0.1 µM
# [5] = second compound 0.0316 µM, first compound 0.316 µM
# [6] = second compound 0.0316 µM, first compound 1 µM
# [7] = second compound 0.1 µM, first compound 0.00316 µM
# [8] = second compound 0.1 µM, first compound 0.01 µM
# [9] = second compound 0.1 µM, first compound 0.0316 µM
# [10] = second compound 0.1 µM, first compound 0.1 µM
# [11] = second compound 0.1 µM, first compound 0.316 µM
# [12] = second compound 0.1 µM, first compound 1 µM
# [13] = second compound 0.316 µM, first compound 0.00316 µM
# [14] = second compound 0.316 µM, first compound 0.01 µM
# [15] = second compound 0.316 µM, first compound 0.0316 µM
# [16] = second compound 0.316 µM, first compound 0.1 µM
# [17] = second compound 0.316 µM, first compound 0.316 µM
# [18] = second compound 0.316 µM, first compound 1 µM
# [19] = second compound 1 µM, first compound 0.00316 µM
# [20] = second compound 1 µM, first compound 0.01 µM
# [21] = second compound 1 µM, first compound 0.0316 µM
# [22] = second compound 1 µM, first compound 0.1 µM
# [23] = second compound 1 µM, first compound 0.316 µM
# [24] = second compound 1 µM, first compound 1 µM
# [25] = second compound 3.16 µM, first compound 0.00316 µM
# [26] = second compound 3.16 µM, first compound 0.01 µM
# [27] = second compound 3.16 µM, first compound 0.0316 µM
# [28] = second compound 3.16 µM, first compound 0.1 µM
# [29] = second compound 3.16 µM, first compound 0.316 µM
# [30] = second compound 3.16 µM, first compound 1 µM
# [31] = second compound 10 µM, first compound 0.00316 µM
# [32] = second compound 10 µM, first compound 0.01 µM
# [33] = second compound 10 µM, first compound 0.0316 µM
# [34] = second compound 10 µM, first compound 0.1 µM
# [35] = second compound 10 µM, first compound 0.316 µM
# [36] = second compound 10 µM, first compound 1 µM
# 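Also: spheroids exposed to compounds for seven days.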
# 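For viability, T/C in this document: 100% = DMSO vehicle control viability.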
compound,measurement,setting,value
C=CCn1c(=O)c2cnc(Nc3ccc(N4CCN(C)CC4)cc3)nc2n1-c1cccc(C(C)(C)O)n1 + COC1C(OC(N)=O)C(O)C(Oc2ccc3c(O)c(NC(=O)c4ccc(O)c(CC=C(C)C)c4)c(=O)oc3c2C)OC1(C)C,IC50,second compound 0.0316 µM,> 1000 nM
same,IC50,second compound 0.1 µM,> 1000 nM
same,IC50,second compound 0.316 µM,> 1000 nM
same,IC50,second compound 1 µM,> 1000 nM
same,IC50,second compound 3.16 µM,> 1000 nM
same,IC50,second compound 10 µM,> 1000 nM
same,"viability, T/C",[1],98.2%
same,"viability, T/C",[2],91.8%
same,"viability, T/C",[3],110%
same,"viability, T/C",[4],95.3%
same,"viability, T/C",[5],95.5%
same,"viability, T/C",[6],82.2%
same,"viability, T/C",[7],103%
same,"viability, T/C",[8],103%
same,"viability, T/C",[9],96.3%
same,"viability, T/C",[10],102%
same,"viability, T/C",[11],98.4%
same,"viability, T/C",[12],80.3%
same,"viability, T/C",[13],105%
same,"viability, T/C",[14],114%
same,"viability, T/C",[15],103%
same,"viability, T/C",[16],105%
same,"viability, T/C",[17],91.8%
same,"viability, T/C",[18],70.9%
same,"viability, T/C",[19],99.2%
same,"viability, T/C",[20],98.5%
same,"viability, T/C",[21],101%
same,"viability, T/C",[22],96.3%
same,"viability, T/C",[23],97.3%
same,"viability, T/C",[24],72.4%
same,"viability, T/C",[25],92.3%
same,"viability, T/C",[26],102%
same,"viability, T/C",[27],106%
same,"viability, T/C",[28],97.4%
same,"viability, T/C",[29],95.3%
same,"viability, T/C",[30],79.1%
same,"viability, T/C",[31],97.9%
same,"viability, T/C",[32],95%
same,"viability, T/C",[33],106%
same,"viability, T/C",[34],101%
same,"viability, T/C",[35],103%
same,"viability, T/C",[36],71.7%
COc1cccc(OCCCN)c1-c1cc(Nc2cnc(C#N)cn2)n[nH]1 + COC1C(OC(N)=O)C(O)C(Oc2ccc3c(O)c(NC(=O)c4ccc(O)c(CC=C(C)C)c4)c(=O)oc3c2C)OC1(C)C,IC50,second compound 0.0316 µM,386 nM
same,IC50,second compound 0.1 µM,535 nM
same,IC50,second compound 0.316 µM,460 nM
same,IC50,second compound 1 µM,391 nM
same,IC50,second compound 3.16 µM,449 nM
same,IC50,second compound 10 µM,465 nM
same,"viability, T/C",[1],103%
same,"viability, T/C",[2],94.2%
same,"viability, T/C",[3],81.1%
same,"viability, T/C",[4],70.2%
same,"viability, T/C",[5],50.3%
same,"viability, T/C",[6],39.7%
same,"viability, T/C",[7],109%
same,"viability, T/C",[8],84.2%
same,"viability, T/C",[9],81%
same,"viability, T/C",[10],69.7%
same,"viability, T/C",[11],56%
same,"viability, T/C",[12],42.2%
same,"viability, T/C",[13],101%
same,"viability, T/C",[14],93%
same,"viability, T/C",[15],85%
same,"viability, T/C",[16],73.1%
same,"viability, T/C",[17],54%
same,"viability, T/C",[18],39.2%
same,"viability, T/C",[19],102%
same,"viability, T/C",[20],93.7%
same,"viability, T/C",[21],83.7%
same,"viability, T/C",[22],66.3%
same,"viability, T/C",[23],53.9%
same,"viability, T/C",[24],38.1%
same,"viability, T/C",[25],107%
same,"viability, T/C",[26],95.1%
same,"viability, T/C",[27],86.3%
same,"viability, T/C",[28],67.2%
same,"viability, T/C",[29],56.3%
same,"viability, T/C",[30],38.7%
same,"viability, T/C",[31],100%
same,"viability, T/C",[32],84.9%
same,"viability, T/C",[33],81.1%
same,"viability, T/C",[34],68.9%
same,"viability, T/C",[35],55.2%
same,"viability, T/C",[36],39.8%
Cn1ncnc1[C@H]1c2n[nH]c(=O)c3cc(F)cc(c23)N[C@@H]1c1ccc(F)cc1 + COC1C(OC(N)=O)C(O)C(Oc2ccc3c(O)c(NC(=O)c4ccc(O)c(CC=C(C)C)c4)c(=O)oc3c2C)OC1(C)C,IC50,second compound 0.0316 µM,> 100 nM
same,IC50,second compound 0.1 µM,> 100 nM
same,IC50,second compound 0.316 µM,> 100 nM
same,IC50,second compound 1 µM,> 100 nM
same,IC50,second compound 3.16 µM,> 100 nM
same,IC50,second compound 10 µM,> 100 nM
same,"viability, T/C","second compound 0.0316 µM, first compound 0.000316 µM",92%
same,"viability, T/C","second compound 0.0316 µM, first compound 0.001 µM",96.6%
same,"viability, T/C",[1],93.5%
same,"viability, T/C",[2],105%
same,"viability, T/C",[3],106%
same,"viability, T/C",[4],84.1%
same,"viability, T/C","second compound 0.1 µM, first compound 0.000316 µM",99.4%
same,"viability, T/C","second compound 0.1 µM, first compound 0.001 µM",93.3%
same,"viability, T/C",[7],107%
same,"viability, T/C",[8],101%
same,"viability, T/C",[9],98.4%
same,"viability, T/C",[10],83.8%
same,"viability, T/C","second compound 0.316 µM, first compound 0.000316 µM",106%
same,"viability, T/C","second compound 0.316 µM, first compound 0.001 µM",101%
same,"viability, T/C",[13],98.4%
same,"viability, T/C",[14],106%
same,"viability, T/C",[15],103%
same,"viability, T/C",[16],92.1%
same,"viability, T/C","second compound 1 µM, first compound 0.000316 µM",103%
same,"viability, T/C","second compound 1 µM, first compound 0.001 µM",101%
same,"viability, T/C",[19],96.3%
same,"viability, T/C",[20],95.1%
same,"viability, T/C",[21],93.9%
same,"viability, T/C",[22],91%
same,"viability, T/C","second compound 3.16 µM, first compound 0.000316 µM",96.6%
same,"viability, T/C","second compound 3.16 µM, first compound 0.001 µM",90.9%
same,"viability, T/C",[25],90.9%
same,"viability, T/C",[26],98.3%
same,"viability, T/C",[27],105%
same,"viability, T/C",[28],94.6%
same,"viability, T/C","second compound 10 µM, first compound 0.000316 µM",103%
same,"viability, T/C","second compound 10 µM, first compound 0.001 µM",99.6%
same,"viability, T/C",[31],99%
same,"viability, T/C",[32],106%
same,"viability, T/C",[33],113%
same,"viability, T/C",[34],101%
O=C(c1cc(Cc2n[nH]c(=O)c3ccccc23)ccc1F)N1CCN(C(=O)C2CC2)CC1 + COC1C(OC(N)=O)C(O)C(Oc2ccc3c(O)c(NC(=O)c4ccc(O)c(CC=C(C)C)c4)c(=O)oc3c2C)OC1(C)C,IC50,second compound 0.0316 µM,> 10000 nM
same,IC50,second compound 0.1 µM,> 10000 nM
same,IC50,second compound 0.316 µM,> 10000 nM
same,IC50,second compound 1 µM,> 10000 nM
same,IC50,second compound 3.16 µM,> 10000 nM
same,IC50,second compound 10 µM,> 10000 nM
same,"viability, T/C",[3],115%
same,"viability, T/C",[4],106%
same,"viability, T/C",[5],105%
same,"viability, T/C",[6],105%
same,"viability, T/C","second compound 0.0316 µM, first compound 3.16 µM",110%
same,"viability, T/C","second compound 0.0316 µM, first compound 10 µM",97.9%
same,"viability, T/C",[9],108%
same,"viability, T/C",[10],108%
same,"viability, T/C",[11],108%
same,"viability, T/C",[12],105%
same,"viability, T/C","second compound 0.1 µM, first compound 3.16 µM",111%
same,"viability, T/C","second compound 0.1 µM, first compound 10 µM",96.3%
same,"viability, T/C",[15],110%
same,"viability, T/C",[16],96.9%
same,"viability, T/C",[17],105%
same,"viability, T/C",[18],104%
same,"viability, T/C","second compound 0.316 µM, first compound 3.16 µM",114%
same,"viability, T/C","second compound 0.316 µM, first compound 10 µM",108%
same,"viability, T/C",[21],110%
same,"viability, T/C",[22],105%
same,"viability, T/C",[23],104%
same,"viability, T/C",[24],106%
same,"viability, T/C","second compound 1 µM, first compound 3.16 µM",117%
same,"viability, T/C","second compound 1 µM, first compound 10 µM",101%
same,"viability, T/C",[27],97.1%
same,"viability, T/C",[28],96.7%
same,"viability, T/C",[29],94.3%
same,"viability, T/C",[30],108%
same,"viability, T/C","second compound 3.16 µM, first compound 3.16 µM",117%
same,"viability, T/C","second compound 3.16 µM, first compound 10 µM",112%
same,"viability, T/C",[33],103%
same,"viability, T/C",[34],103%
same,"viability, T/C",[35],115%
same,"viability, T/C",[36],107%
same,"viability, T/C","second compound 10 µM, first compound 3.16 µM",114%
same,"viability, T/C","second compound 10 µM, first compound 10 µM",97%
